“Also recorded” adds a separate entry of the source. Blank lines part the entries; values can stand above or below the compound they belong to.
What was measured:
[1] = biological target: T1, Recombinant human LTA4H (Homo sapiens, UniProt P09960); test: In vitro epoxide hydrolase activity assay (LTB4 EIA readout); assay type: biochemical; conditions: LTA4 substrate 0.13 μM
T1 sequence (P09960 1-611): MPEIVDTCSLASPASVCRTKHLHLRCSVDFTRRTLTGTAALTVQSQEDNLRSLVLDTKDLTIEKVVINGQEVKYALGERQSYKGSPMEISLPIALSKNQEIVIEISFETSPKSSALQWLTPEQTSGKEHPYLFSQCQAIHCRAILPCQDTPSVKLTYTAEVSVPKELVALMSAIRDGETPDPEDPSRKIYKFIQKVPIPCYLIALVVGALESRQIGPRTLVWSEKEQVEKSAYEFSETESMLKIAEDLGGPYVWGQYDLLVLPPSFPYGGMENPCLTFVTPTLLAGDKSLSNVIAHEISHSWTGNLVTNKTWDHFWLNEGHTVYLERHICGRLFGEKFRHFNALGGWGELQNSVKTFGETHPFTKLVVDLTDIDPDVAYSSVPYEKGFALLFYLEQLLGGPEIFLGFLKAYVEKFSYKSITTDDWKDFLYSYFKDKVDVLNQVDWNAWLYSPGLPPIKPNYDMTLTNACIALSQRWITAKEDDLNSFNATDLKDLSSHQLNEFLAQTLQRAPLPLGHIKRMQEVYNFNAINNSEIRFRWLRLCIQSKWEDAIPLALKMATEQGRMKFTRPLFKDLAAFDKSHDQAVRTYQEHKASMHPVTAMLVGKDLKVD
Experimental: The LTA4H inhibitory activity of certain compounds in this invention was measured using an in vitro epoxide hydrolase activity assay. In this assay, an LTA4 substrate was first prepared from the methyl ester of LTA4 (Cayman Chemical), which was treated under nitrogen with […] of NaOH, at room temperature, for 40 min. The LTA4 substrate in its free acid form was kept frozen at −80° C. until use. Recombinant human LTA4H (36 ng) was incubated with various concentrations of test compounds for 10 min. at room temperature in assay buffer (0.1 M potassium phosphate, pH 7.4, 5 mg/ml fatty acid-free bovine serum albumin) in a volume of 200 μl. Then, the mixture was incubated with 25 μl of LTA4 substrate (final concentration, 40 ng/ml, 0.13 μM; final volume, 225 μl) for 30 min. at room temperature. The assay was terminated by diluting 20-fold with assay buffer. LTB4 production from each reaction was then assayed using the LTB4 EIA kit (catalog no. 520111, Cayman Chemical). The concentration of compound required for half-maximal inhibition of recombinant enzyme activity (IC50) was calculated by nonlinear regression using GraphPad Prism 4.0 (GraphPad Software Inc), one-site binding competition.

[2] = tested on: athymic rat model of PAH; test: SU5416 athymic nude rat model of PAH (PH); assay type: in vivo; conditions: for reversal of established PH / PH-related death: treatment started 21 days (3 wk) after SU5416, doses as in b355, assessed at wk 5
Experimental: In the model, PH was first initiated by a single injection of a VEGFR2 inhibitor, SU5416, and monitored by weekly echocardiography. Survival of the animals was recorded on daily basis. […] After 5 weeks (day 35), animals were sacrificed after right heart catheterization. […] Oral availability of ubenimex was determined by pharmacokinetic analysis.
The athymic nude rat model is an accepted model of severe PAH associated with immune dysregulation. Athymic nude rats (rnu/rnu) (Charles River Laboratories) were used for these studies. Six to eight week old animals were injected subcutaneously (s.c.) with a single dose of either SU5416 (SU) (10 mg/kg) dissolved in DMSO or DMSO (vehicle) alone. All animals were maintained in normoxic conditions. PH progression was monitored by weekly echocardiography (ECHO). Survival of rats was monitored out to wk 5 when they underwent a terminal right heart catheterization. PH was confirmed by ECHO. Hemodynamic measurements included right ventricular systolic pressure (RVSP) determined by right heart catheterization and right ventricular hypertrophy (RVH) determined by the weight ratio of RV/(LV+S) (right ventricle/(left ventricle+septum)).
All animals were sacrificed 5 wk after SU administration for hemodynamic measurements. […] Serial improvement was observed from the time of treatment initiation. Interval improvement was manifested by decreasing RV wall thickness and increasing pulmonary artery acceleration times (PAAT) after initiation of treatment. […] Here again, the compound of Formula III was notable: treatment with that compound yielded an RVH ratio of 0.29. RVH for healthy rats is generally about 0.25.

[3] = tested on: Rat pulmonary arterial endothelial cells (PAECs); test: PAEC apoptosis assay (Annexin V flow cytometry, with or without macrophage co-culture); assay type: cell-based; conditions: for PAEC apoptosis induced by exogenous leukotriene (no macrophages): 24 hrs
Experimental: The transwell assay involved co-culturing IMØs from several sources with PAECs. IMØs, from (A) DMSO and (B) SU rat lungs, were isolated and co-cultured with PAECs. After 24 hr, PAEC apoptosis was analyzed by flow cytometry for Annexin V expression. To isolate the specific impact of LTB4 generated by 5-LO activation further, IMØs were extracted from healthy rats and transfected with S271E to produce a phosphorylation mimic mutant or with S271A to produce a dephosphorylation mimic mutant. Vector and WT 5-LO DNA-transfected IMØs were used as controls. Flow cytometry was performed on PAECs co-cultured with IMØs extracted from healthy rats and transfected with (C) vector as control, (D) WT 5-LO, (E) S271A, (F) S271E (G) S271E mutant treated with n-acetyl cysteine (NAC) (200 nM) or (H) S271A mutant treated with LTB4 (100 nM). PAECs were treated with (I) exogenous LTB4 (200 nM) or (J) LTB4 (200 nM) with a BLT1 inhibitor U75302 […] (n=3 experiments per group). Representative flow cytometry plots are shown, n=3 experiments per group.
The results reported in this example were obtained using the following PAEC apoptosis assay. Rat pulmonary arterial endothelial cells (PAECs) were co-cultured with macrophages (+/− transfection) for 24 hr. They were then washed once with PBS and once with binding buffer from the Annexin V Apoptosis Detection Kit (88-8007; eBioscience). Cells were then suspended in binding buffer at 1-5×10^6/ml. 5 μl of APC conjugated Annexin V was added to 100 μl of cells, which were then incubated at room temperature for 15 min. Five μl of propidium iodide staining solution were added 5 min. prior to flow cytometry analysis on an LSRFortessa cell analyzer (BD Biosciences).

[4] = tested on: human primary pulmonary arterial smooth muscle cell (hPASMC); test: hPASMC proliferation (MTT) and hypertrophy (protein/DNA ratio) assay; assay type: cell-based; conditions: 24 hr
Experimental: An in vitro toxicology assay kit (#M-5655, #8910, Sigma) was used to measure the number of viable hPASMC after LTB4 treatment. Briefly, hPASMCs were plated in a 96 well plate one day before treatment. Cells were treated with 200 nM or 400 nM LTB4 for 24 hr. On the day of assay, growing medium was first removed from the cells, then 20 μL of 12 mM MTT ((3-(4,5-Dimethylthiazol-2-yl)-2,5-diphenyltetrazolium bromide, a yellow tetrazole)) stock solution were then added to each well. After incubation at 37 degrees C. for 4 hr, 200 μL MTT dissolution solution (10% Triton X-100 plus 0.1 N HCl in anhydrous isopropanol) were added to each well. Relative optical density, which was used as a parameter for proliferation, was calculated by subtracting the absorbance at 690 nm from that at 570 nm. Cellular hypertrophy was determined by protein/DNA ratio. hPASMCs were seeded on 6 well plates. Cells were treated with 200 nM or 400 nM LTB4 for 24 hr. hPASMCs were then collected and divided into to two. For one part of each sample, a BCA protein assay kit (#23227, Thermo Scientific) was used to determined the total protein amount. DNA was purified from the other part of the sample using a Miniprep kit (QIAGEN). DNA concentration was then measured by nanodrop.

[5] = patients with PAH; cited from earlier work

SMILES: CC(=O)N[C@H](Cc1ccc(O)cc1)[C@H](OC(C)=O)C(=O)N[C@@H](CC(C)C)C(=O)O
IC50 [1]: 43 ± 11 nM

SMILES: CC(=O)N[C@H](Cc1ccc(O)cc1)[C@H](O)C(=O)N[C@@H](CC(C)C)C(=O)O
IC50 [1]: 13 ± 4 nM

IC50 [1]: 10 ± 5 nM
SMILES: CC(C)C[C@H](NC(=O)[C@@H](O)[C@H](N)Cc1ccc(Oc2nc3ccccc3s2)cc1)C(=O)O [Formula III, (S)-2-((2S,3R)-3-amino-4-(4-(benzo[d]thiazol-2-yloxy)phenyl)-2-hydroxybutanamido)-4-methylpentanoic acid]
RVSP ([2]; 1 mg/kg p.o. daily, sacrificed 5 wk after SU): 28 mm Hg
RVH ratio ([2]; 1 mg/kg p.o. daily, sacrificed 5 wk after SU, RV/(LV+S)): 0.29

SMILES: O=C(O)C1CCN(Cc2ccc(Oc3nc4ccccc4s3)cc2)CC1 [JNJ26993135, 1-[4-(benzothiazol-2-yloxy)-benzyl]-piperidine-4-carboxylic acid]
accumulation of 5-LO expressing periarteriolar macrophages and B cells in lungs ([2]; SU-treated athymic rats): significantly reduced
in vivo PAEC apoptosis ([2]; SU-treated athymic rats): reduced
reversal of established PH / PH-related death [2]: efficacious in reversing severe PH and preventing PH-related death; also recorded: reverses established PH

SMILES: CCCCC/C=C\C[C@@H](O)/C=C/C=C/C=C\[C@@H](O)CCCC(=O)O [LTB4, leukotriene B4]
PAEC apoptosis induced by exogenous leukotriene (no macrophages) [3]: significant apoptosis
PAEC apoptosis in co-culture with S271A transfected macrophages ([3]; exogenous LTB4 (100 nM)): caused apoptosis
cellular hypertrophy (protein/DNA ratio) ([4]; 200 nM or 400 nM): increased in a similar pattern
number of PASMC versus negative control group ([4]; 200 nM): 1.8 fold
number of PASMC versus negative control group ([4]; 400 nM): two fold more

SMILES: CCCCC/C=C\C\C=C/C=C/C=C/[C@@H](SC[C@H](NC(=O)CC[C@H](N)C(=O)O)C(=O)NCC(=O)O)[C@@H](O)CCCC(=O)O [LTC4, leukotriene C4]
PAEC apoptosis induced by exogenous leukotriene (no macrophages) [3]: did not induce PAEC apoptosis

SMILES: CCCCC/C=C\C\C=C/C=C/C=C/[C@@H](SC[C@H](N)C(=O)NCC(=O)O)[C@@H](O)CCCC(=O)O [LTD4, leukotriene D4]
PAEC apoptosis induced by exogenous leukotriene (no macrophages) [3]: did not induce PAEC apoptosis

SMILES: CCCCC/C=C\C\C=C/C=C/C=C/[C@@H](SC[C@H](N)C(=O)O)[C@@H](O)CCCC(=O)O [LTE4, leukotriene E4]
PAEC apoptosis induced by exogenous leukotriene (no macrophages) [3]: did not induce PAEC apoptosis

SMILES: CCCCCCCCCCCCC/C=C/[C@@H](O)[C@@H](N)COP(=O)(O)O [SIP, sphingosine-1-phosphate]
rescue of PAECs co-cultured with S271E cells ([3]; exogenously added): able to rescue

SMILES: CN1CC(=O)N2[C@H](c3ccc4c(c3)OCO4)c3[nH]c4ccccc4c3C[C@@H]2C1=O [Tadalafil]
half-life [5]: 35 h

SMILES: CCCCC/C=C\C[C@@H](O)/C=C/c1cccc(C[C@@H](O)CCCCO)n1 [U75302]
LTB4-mediated PAEC apoptosis ([3]; LTB4 (200 nM) with U75302, 24 hr): prevented LTB4-mediated apoptosis

SMILES: CC(=O)Oc1ccccc1C(=O)O [aspirin]
reversal of established PH / PH-related death [2]: relatively less therapeutic

SMILES: COC(=O)[C@H](CC(C)C)NC(=O)[C@@H](OC(C)=O)[C@@H](Cc1ccc(Br)cc1)NC(C)=O [di-acyl ubenimex bromide, (S)-methyl 2-((2S,3R)-3-acetamido-2-acetoxy-4-(4-bromophenyl)butanamido)-4-methylpentanoate]
IC50 [1]: 40 ± 22 nM

SMILES: COC(=O)[C@H](CC(C)C)NC(=O)[C@@H](OC(C)=O)[C@@H](Cc1ccccc1)NC(C)=O [di-acyl ubenimex, (S)-methyl 2-((2S,3R)-3-acetamido-2-acetoxy-4-phenylbutanamido)-4-methylpentanoate]
IC50 [1]: 25 ± 18 nM

SMILES: O=C(NC1CCCCC1)NC1CCCCC1 [dicyclohexyl urea]
reversal of established PH / PH-related death [2]: relatively less therapeutic

IC50 [1]: 94 ± 21 nM
SMILES: COC(=O)[C@H](CC(C)C)NC(=O)[C@@H](O)[C@@H](Cc1ccccc1)NC(C)=O [mono-acryl ubenimex, (S)-methyl 2-((2S,3R)-3-acetamido-2-hydroxy-4-phenylbutanamido)-4-methylpentanoate]

IC50 [1]: 93 ± 16 nM
SMILES: COC(=O)[C@H](CC(C)C)NC(=O)[C@@H](O)[C@@H](Cc1ccc(Br)cc1)NC(C)=O [mono-acyl ubenimex bromide, (S)-methyl 2-((2S,3R)-3-acetamido-4-(4-bromophenyl)-2-hydroxybutanamido)-4-methylpentanoate]

SMILES: CC(=O)N[C@@H](CS)C(=O)O [n-acetyl cysteine]
PAEC apoptosis in co-culture with S271E mutant macrophages ([3]; NAC (200 nM)): no diminution of apoptosis

SMILES: Oc1ccc(C=Cc2cc(O)cc(O)c2)cc1 [resveratrol]
reversal of established PH / PH-related death [2]: did not attenuate PH or improve survival

IC50 [1]: 54 ± 13 nM
SMILES: COC(=O)[C@H](CC(C)C)NC(=O)[C@@H](O)[C@H](N)Cc1ccccc1 [ubenimex methy ester, (S)-methyl 2-((2S,3R)-3-amino-2-hydroxy-4-phenylbutanamido)-4-methylpentanoate]

SMILES: CC(c1cc2ccccc2s1)N(O)C(N)=O (centres unmarked) [zileuton, 1-[1-(1-benzothiophen-2-yl)ethyl]-1-hydroxyurea]
reversal of established PH / PH-related death [2]: mildly attenuated pressures and prevented death
